Assay results reported in article PMC10732257 (Oncotarget, 2023).

Experiments:
5-HT1A (serotonin) = molecular target: T1, 5-HT1A (serotonin) (Homo sapiens, UniProt P08908); assay: GPCR agonist action testing; format: cell-based
T1 construct: Wuxi AppTech (Shanghai, China)
Excerpt: (§1) Supplementary Table 2: Results of GPCR agonist action testing of GFH009 administered at a
(§2) Agonist action against GPCR type shown below
(§3) Target % Agonist Effect @ Max Dose
(§4) M1 (muscarinic Ach) −2.18
(§5) M2 (muscarinic Ach) −0.63

5-HT1B (serotonin) = molecular target: T2, 5-HT1B (serotonin) (Homo sapiens, UniProt P28222); assay: GPCR agonist action testing; format: cell-based
T2 construct: Wuxi AppTech (Shanghai, China)
T2 sequence (P28222 whole entry, species assumed): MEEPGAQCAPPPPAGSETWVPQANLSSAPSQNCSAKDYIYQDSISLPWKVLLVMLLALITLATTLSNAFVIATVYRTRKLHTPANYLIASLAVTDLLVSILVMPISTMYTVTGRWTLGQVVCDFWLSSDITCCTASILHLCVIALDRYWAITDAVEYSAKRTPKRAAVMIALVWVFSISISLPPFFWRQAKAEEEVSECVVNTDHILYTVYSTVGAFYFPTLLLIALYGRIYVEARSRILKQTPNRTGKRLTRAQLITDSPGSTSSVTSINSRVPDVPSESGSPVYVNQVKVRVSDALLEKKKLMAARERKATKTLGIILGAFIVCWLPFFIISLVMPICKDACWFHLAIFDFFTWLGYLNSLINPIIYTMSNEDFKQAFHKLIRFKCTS
Excerpt: as §1, §2, §3, §4, §5

5-HT2A (serotonin) = molecular target: T3, 5-HT2A (serotonin) (Homo sapiens, UniProt P28223); assay: GPCR agonist action testing; format: cell-based
T3 construct: Wuxi AppTech (Shanghai, China)
Excerpt: as §1, §2, §3, §4, §5

5-HT2B (serotonin) = molecular target: T4, 5-HT2B (serotonin) (Homo sapiens, UniProt P41595); assay: GPCR agonist action testing; format: cell-based
T4 construct: Wuxi AppTech (Shanghai, China)
T4 sequence (P41595 whole entry, species assumed): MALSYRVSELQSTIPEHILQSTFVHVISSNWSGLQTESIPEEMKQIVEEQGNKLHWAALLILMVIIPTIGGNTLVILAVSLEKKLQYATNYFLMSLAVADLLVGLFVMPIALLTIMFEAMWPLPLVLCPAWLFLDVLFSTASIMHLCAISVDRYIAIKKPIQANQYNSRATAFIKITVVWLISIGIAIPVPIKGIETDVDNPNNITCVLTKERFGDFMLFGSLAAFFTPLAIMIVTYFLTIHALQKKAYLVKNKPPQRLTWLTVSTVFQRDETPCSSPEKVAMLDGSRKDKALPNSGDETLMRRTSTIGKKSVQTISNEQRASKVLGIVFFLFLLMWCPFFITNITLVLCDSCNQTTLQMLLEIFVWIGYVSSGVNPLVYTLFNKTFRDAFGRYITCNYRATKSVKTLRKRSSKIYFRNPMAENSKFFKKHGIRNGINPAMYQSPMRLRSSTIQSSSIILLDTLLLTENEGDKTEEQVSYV
Excerpt: as §1, §2, §3, §4, §5

AD2 (adenosine) = assay: GPCR agonist action testing; format: cell-based
Excerpt: as §1, §2, §3, §4, §5

CB1 (cannabinoid) = molecular target: T5, CB1 (cannabinoid) (Homo sapiens, UniProt P21554); assay: GPCR agonist action testing; format: cell-based
T5 construct: Wuxi AppTech (contract laboratory)
Excerpt: as §1, §2, §3, §4, §5

CB2 (cannabinoid) = molecular target: T6, CB2 (cannabinoid) (Homo sapiens, UniProt P34972); assay: GPCR agonist action testing; format: cell-based
T6 construct: Wuxi AppTech (contract laboratory)
Excerpt: as §1, §2, §3, §4, §5

CCKa = molecular target: T7, CCKa (Homo sapiens, UniProt P32238); assay: GPCR agonist action testing; format: cell-based
T7 construct: Wuxi AppTech (contract laboratory)
Excerpt: as §1, §2, §3, §4, §5

D1 (dopamine) = molecular target: T8, D1 (dopamine) (Homo sapiens, UniProt P21728); assay: GPCR agonist action testing; format: cell-based
T8 construct: Wuxi AppTech (contract laboratory)
T8 sequence (P21728 whole entry): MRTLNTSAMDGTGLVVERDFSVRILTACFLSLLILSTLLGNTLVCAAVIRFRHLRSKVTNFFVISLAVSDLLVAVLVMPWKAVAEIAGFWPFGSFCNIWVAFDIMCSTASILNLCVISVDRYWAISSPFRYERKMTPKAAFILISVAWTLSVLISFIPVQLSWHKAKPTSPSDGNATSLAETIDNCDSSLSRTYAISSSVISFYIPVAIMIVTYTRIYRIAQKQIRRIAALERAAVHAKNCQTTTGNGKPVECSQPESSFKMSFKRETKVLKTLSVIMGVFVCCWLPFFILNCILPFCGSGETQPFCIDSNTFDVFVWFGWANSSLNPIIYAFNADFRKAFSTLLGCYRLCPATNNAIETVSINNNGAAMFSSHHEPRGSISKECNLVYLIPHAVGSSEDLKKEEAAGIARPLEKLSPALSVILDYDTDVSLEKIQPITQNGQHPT
Excerpt: as §1, §2, §3, §4, §5

D2 (dopamine) = molecular target: T9, D2 (dopamine) (Homo sapiens, UniProt P14416); assay: GPCR agonist action testing; format: cell-based
T9 construct: Wuxi AppTech (contract laboratory)
Excerpt: as §1, §2, §3, §4, §5

ETA (endothelin) = molecular target: T10, ETA (endothelin) (Homo sapiens, UniProt P25101); assay: GPCR agonist action testing; format: cell-based
T10 construct: Wuxi AppTech (contract laboratory)
T10 sequence (P25101 21-427): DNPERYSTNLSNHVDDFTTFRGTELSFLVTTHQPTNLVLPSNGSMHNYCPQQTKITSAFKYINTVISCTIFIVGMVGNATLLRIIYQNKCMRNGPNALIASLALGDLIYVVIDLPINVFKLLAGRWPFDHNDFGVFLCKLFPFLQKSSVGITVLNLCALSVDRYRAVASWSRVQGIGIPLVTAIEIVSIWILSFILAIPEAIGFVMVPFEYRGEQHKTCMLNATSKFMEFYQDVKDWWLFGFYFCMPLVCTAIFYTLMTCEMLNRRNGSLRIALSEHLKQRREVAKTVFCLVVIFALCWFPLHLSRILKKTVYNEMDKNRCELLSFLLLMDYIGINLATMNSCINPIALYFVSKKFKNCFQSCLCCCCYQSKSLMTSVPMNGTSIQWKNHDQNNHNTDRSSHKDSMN
Excerpt: as §1, §2, §3, §4, §5

H1 (histamine) = molecular target: T11, H1 (histamine) (Homo sapiens, UniProt P35367); assay: GPCR agonist action testing; format: cell-based
T11 construct: Wuxi AppTech (contract laboratory)
Excerpt: as §1, §2, §3, §4, §5

H2 (histamine) = H2 (histamine) (Homo sapiens, UniProt P25021); assay: GPCR agonist action testing; format: cell-based
Chain of H2 (histamine) (P25021 whole entry): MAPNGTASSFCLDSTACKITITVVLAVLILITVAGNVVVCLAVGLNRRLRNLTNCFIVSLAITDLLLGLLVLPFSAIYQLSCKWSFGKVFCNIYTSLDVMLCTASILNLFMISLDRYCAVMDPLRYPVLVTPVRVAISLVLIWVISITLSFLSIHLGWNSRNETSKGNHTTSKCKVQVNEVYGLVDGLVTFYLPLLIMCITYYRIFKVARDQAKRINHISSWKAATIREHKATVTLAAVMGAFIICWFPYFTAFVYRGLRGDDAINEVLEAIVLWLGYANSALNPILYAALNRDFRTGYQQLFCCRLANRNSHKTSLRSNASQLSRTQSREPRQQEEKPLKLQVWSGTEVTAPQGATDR
Excerpt: as §1, §2, §3, §4, §5

M1 (muscarinic Ach) = M1 (muscarinic Ach) (Homo sapiens, UniProt P11229); assay: GPCR agonist action testing; format: cell-based
Chain of M1 (muscarinic Ach) (P11229 whole entry): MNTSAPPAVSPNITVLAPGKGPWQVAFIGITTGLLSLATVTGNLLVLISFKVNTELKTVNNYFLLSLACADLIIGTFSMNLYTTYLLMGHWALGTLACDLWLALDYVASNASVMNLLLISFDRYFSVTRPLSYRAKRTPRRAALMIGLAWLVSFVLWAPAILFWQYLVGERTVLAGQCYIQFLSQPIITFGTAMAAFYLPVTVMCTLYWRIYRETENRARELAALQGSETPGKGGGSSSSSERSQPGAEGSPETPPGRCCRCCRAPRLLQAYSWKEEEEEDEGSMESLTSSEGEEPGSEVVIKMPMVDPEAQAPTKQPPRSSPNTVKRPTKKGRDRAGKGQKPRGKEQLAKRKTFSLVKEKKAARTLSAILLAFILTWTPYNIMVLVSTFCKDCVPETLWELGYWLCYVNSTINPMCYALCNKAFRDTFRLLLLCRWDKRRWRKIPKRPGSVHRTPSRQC
Excerpt: as §1, §2, §3, §4, §5

M2 (muscarinic Ach) [1] = molecular target: T12, M2 (muscarinic Ach) (Homo sapiens, UniProt P08172); assay: GPCR agonist action testing; format: cell-based
T12 sequence (P08172 whole entry): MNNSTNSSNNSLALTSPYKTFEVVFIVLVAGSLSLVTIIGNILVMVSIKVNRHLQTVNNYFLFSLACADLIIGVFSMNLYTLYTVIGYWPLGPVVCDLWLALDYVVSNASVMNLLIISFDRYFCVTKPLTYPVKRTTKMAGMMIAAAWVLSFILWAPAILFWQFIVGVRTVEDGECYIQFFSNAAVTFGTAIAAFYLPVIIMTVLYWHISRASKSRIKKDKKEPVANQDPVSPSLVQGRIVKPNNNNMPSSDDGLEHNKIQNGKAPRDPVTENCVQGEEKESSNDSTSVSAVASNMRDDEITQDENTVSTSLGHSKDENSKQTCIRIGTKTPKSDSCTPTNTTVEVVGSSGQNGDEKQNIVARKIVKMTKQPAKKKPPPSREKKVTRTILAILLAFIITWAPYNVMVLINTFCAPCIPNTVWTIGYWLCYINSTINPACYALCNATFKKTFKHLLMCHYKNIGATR
Excerpt: as §1, §2, §3, §4, §5

M3 (muscarinic Ach) [2] = molecular target: T13, M3 (muscarinic Ach) (Homo sapiens, UniProt P20309); assay: GPCR agonist action testing; format: cell-based
T13 sequence (P20309 whole entry): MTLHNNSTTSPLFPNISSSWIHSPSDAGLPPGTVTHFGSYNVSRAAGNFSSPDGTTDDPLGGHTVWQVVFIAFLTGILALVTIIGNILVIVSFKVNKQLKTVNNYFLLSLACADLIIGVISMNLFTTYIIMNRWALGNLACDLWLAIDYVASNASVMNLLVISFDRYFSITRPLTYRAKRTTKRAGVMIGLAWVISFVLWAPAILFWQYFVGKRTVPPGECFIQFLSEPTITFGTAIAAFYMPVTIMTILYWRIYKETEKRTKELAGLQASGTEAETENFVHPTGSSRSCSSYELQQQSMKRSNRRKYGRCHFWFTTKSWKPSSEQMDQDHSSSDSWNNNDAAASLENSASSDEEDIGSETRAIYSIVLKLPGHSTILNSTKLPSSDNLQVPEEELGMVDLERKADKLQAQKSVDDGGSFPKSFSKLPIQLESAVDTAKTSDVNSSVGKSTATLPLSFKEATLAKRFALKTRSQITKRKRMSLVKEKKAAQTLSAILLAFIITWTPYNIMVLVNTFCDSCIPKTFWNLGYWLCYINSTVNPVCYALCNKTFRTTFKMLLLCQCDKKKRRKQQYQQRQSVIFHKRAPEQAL
Excerpt: as §1, §2, §3, §4, §5

V1A (vasopressin) = V1A (vasopressin) (Homo sapiens, UniProt P37288); assay: GPCR agonist action testing; format: cell-based
Excerpt: as §1, §2, §3, §4, §5

a1a (adrenoceptor) = molecular target: T14, a1a (adrenoceptor) (Homo sapiens, UniProt P35348); assay: GPCR agonist action testing; format: cell-based
T14 construct: Wuxi AppTech (contract laboratory)
T14 sequence (P35348 whole entry): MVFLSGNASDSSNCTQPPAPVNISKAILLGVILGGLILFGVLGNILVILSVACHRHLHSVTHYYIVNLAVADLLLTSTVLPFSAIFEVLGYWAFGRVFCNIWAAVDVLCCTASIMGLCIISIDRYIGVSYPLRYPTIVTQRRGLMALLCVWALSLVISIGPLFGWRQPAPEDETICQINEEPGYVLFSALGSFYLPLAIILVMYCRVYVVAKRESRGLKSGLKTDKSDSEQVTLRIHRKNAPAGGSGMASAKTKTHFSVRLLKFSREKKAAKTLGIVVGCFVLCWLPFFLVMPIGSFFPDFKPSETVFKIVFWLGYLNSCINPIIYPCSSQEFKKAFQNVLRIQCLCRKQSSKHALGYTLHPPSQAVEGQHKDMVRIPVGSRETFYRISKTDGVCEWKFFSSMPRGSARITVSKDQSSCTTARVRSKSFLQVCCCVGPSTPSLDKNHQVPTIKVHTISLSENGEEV
Excerpt: as §1, §2, §3, §4, §5

a2a (adrenoceptor) = molecular target: T15, a2a (adrenoceptor) (Homo sapiens, UniProt P08913); assay: GPCR agonist action testing; format: cell-based
T15 construct: Wuxi AppTech (contract laboratory)
T15 sequence (P08913 whole entry): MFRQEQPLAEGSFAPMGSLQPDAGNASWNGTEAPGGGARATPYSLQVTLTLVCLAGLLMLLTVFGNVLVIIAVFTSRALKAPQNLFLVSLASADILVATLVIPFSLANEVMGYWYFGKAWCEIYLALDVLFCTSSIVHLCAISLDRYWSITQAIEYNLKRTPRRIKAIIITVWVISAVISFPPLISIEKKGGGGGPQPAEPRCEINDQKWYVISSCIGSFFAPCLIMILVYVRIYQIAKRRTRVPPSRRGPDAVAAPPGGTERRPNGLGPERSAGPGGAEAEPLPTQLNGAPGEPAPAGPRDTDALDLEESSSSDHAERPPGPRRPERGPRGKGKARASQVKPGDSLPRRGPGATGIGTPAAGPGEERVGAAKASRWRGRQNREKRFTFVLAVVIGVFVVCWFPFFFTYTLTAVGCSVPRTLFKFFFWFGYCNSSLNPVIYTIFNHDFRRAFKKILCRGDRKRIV
Excerpt: as §1, §2, §3, §4, §5

b1 (adrenoceptor) = molecular target: T16, b1 (adrenoceptor) (Homo sapiens, UniProt P08588); assay: GPCR agonist action testing; format: cell-based
T16 construct: Wuxi AppTech (contract laboratory)
Excerpt: as §1, §2, §3, §4, §5

b2 (adrenoceptor) = molecular target: T17, b2 (adrenoceptor) (Homo sapiens, UniProt P07550); assay: GPCR agonist action testing; format: cell-based
T17 construct: Wuxi AppTech (contract laboratory)
Excerpt: as §1, §2, §3, §4, §5

op-d (opioid) = op-d (opioid) (Homo sapiens, UniProt P41143); assay: GPCR agonist action testing; format: cell-based
Excerpt: as §1, §2, §3, §4, §5

op-k (opioid) = op-k (opioid) (Homo sapiens, UniProt P41145); assay: GPCR agonist action testing; format: cell-based
Excerpt: as §1, §2, §3, §4, §5

op-m (opioid) = op-m (opioid) (Homo sapiens, UniProt P35372); assay: GPCR agonist action testing; format: cell-based
Excerpt: as §1, §2, §3, §4, §5

M2 (muscarinic Ach) [3] = molecular target: T12, M2 (muscarinic Ach); assay: GPCR competitive antagonist (off-target inhibitory action) testing; format: cell-based
Excerpt: (§6) Supplementary Table 3: Results of off-target inhibitory action testing of GFH009 administered at
(§7) Competitive antagonist activity against GPCR type shown below
(§8) Target % Inhibitory Effect @ Max Dose
(§9) M1 (muscarinic Ach) 98.78
(§10) M2 (muscarinic Ach) 95.69
(§11) M3 (muscarinic Ach) 99.12

M3 (muscarinic Ach) [4] = molecular target: T13, M3 (muscarinic Ach); assay: as above; format: cell-based
Excerpt: as §6, §7, §8, §9, §10, §11

MV-4-11 xenograft = assay: Anti-tumor efficacy in subcutaneous MV-4-11 xenograft model; format: in vivo, female BALB/c nude mice
Method: Figure 6 Anti-tumor efficacy of GFH009 in MV-4-11 xenograft model. MV-4-11 xenograft in female BALB/c nude mice were treated with GFH009 or enitociclib at the indicated doses (n = 8 mice per group). Results are expressed as mean ± SEM. ^* P < 0.05, ^**** P < 0.0001, two-way ANOVA with Dunnett’s multiple comparisons test analysis compared to Vehicle control group.
In vivo studies of tumor suppression were conducted in female BALB/c nude mice (Beijing Vital River Laboratory Animal Technology Co, Ltd., Changping, Beijing, China) bearing MV-4-11 xenografts (ATCC, Rockville, MD, USA). Each mouse was inoculated subcutaneously into the right dorsal-region with 5.0 × 10^6 cultured MV-4-11 cells in a total volume of 0.2 ml solution and allowed to develop xenograft tumors. Once tumor size had reached […], mice were divided into groups to receive 1 of 8 different treatment preparations dosed intravenously via the tail vein (Table 2). […] Enitociclib was administered as a 1.0 mg/mL solution in ultrapure water with 5% DMSO. Vehicle control was 50 mM PBS with no dissolved treatment drug.
Animals dosed BIW were given treatments on 2 consecutive days. Weights were recorded for each mouse every day and tumor volumes assessed 3 times a week. Total treatment administration occurred across 3 consecutive weeks.
Subcutaneous tumor volume (TV) was calculated as TV = (L × W^2)/2, where L was the length and W was the width of the tumor [11]. […] TGI was calculated as TGI (%) = (1 – avTi-0/ avCi-0)) × 100, where avTi-0 is the mean TV of the treatment group on a given day minus the mean TV of this treatment group on the day of group assignment, and avCi-0 is the mean TV of the vehicle control group on a given day minus the mean TV of the vehicle control group on the day of group assignment.
Tumor volume data was subjected to a base-10 logarithmic transformation and subsequent comparisons of TV across groups was made using two-way ANOVA (Dunnett’s multiple comparisons test). All plotting and statistical analyses were conducted using GraphPad Prism 6.00 (GraphPad Software).

T1 sequence (P08908 whole entry, species assumed): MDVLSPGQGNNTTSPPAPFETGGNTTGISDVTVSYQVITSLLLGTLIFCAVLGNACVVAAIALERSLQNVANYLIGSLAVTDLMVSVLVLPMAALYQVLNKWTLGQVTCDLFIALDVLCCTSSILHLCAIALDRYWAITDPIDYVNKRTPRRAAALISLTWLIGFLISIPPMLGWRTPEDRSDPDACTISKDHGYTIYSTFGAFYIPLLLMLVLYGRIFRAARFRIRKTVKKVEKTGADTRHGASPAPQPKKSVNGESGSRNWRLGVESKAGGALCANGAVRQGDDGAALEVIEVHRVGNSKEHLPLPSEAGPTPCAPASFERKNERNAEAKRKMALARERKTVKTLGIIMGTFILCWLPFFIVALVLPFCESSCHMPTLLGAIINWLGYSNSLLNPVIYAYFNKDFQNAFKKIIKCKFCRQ

Q: With `COC[C@@H](C)NC1CCC(Nc2cc(-c3csc(NCC4(C#N)CCOCC4)n3)c(Cl)cn2)CC1` (stereo partly shown) [GFH009] as the compound, how does the “% Agonist Effect @ Max Dose (12 µM)” value (5-HT1A (serotonin)) read?
A: −0.33%

Q: And the “% Agonist Effect @ Max Dose (12 µM)” value (5-HT1B (serotonin))?
A: −51.01%

Q: And the “% Agonist Effect @ Max Dose (12 µM)” value (5-HT2A (serotonin))?
A: −1.68%

Q: What about the “% Agonist Effect @ Max Dose (12 µM)” value (5-HT2B (serotonin)) of the same compound?
A: 4.55%

Q: What about the “% Agonist Effect @ Max Dose (12 µM)” value (AD2 (adenosine)) of the same compound?
A: 21.7%

Q: And the “% Agonist Effect @ Max Dose (12 µM)” value (CB1 (cannabinoid))?
A: −0.7%

Q: What about the “% Agonist Effect @ Max Dose (12 µM)” value (CB2 (cannabinoid)) of the same compound?
A: 0.23%

Q: What about the “% Agonist Effect @ Max Dose (12 µM)” value (CCKa) of the same compound?
A: −0.4%

Q: What about the “% Agonist Effect @ Max Dose (12 µM)” value (D1 (dopamine)) of the same compound?
A: −1.49%

Q: And the “% Agonist Effect @ Max Dose (12 µM)” value (D2 (dopamine))?
A: 3.66%

Q: And the “% Agonist Effect @ Max Dose (12 µM)” value (ETA (endothelin))?
A: −0.08%

Q: What about the “% Agonist Effect @ Max Dose (12 µM)” value (H1 (histamine)) of the same compound?
A: 1.55%

Q: And the “% Agonist Effect @ Max Dose (12 µM)” value (H2 (histamine))?
A: −0.03%

Q: And the “% Agonist Effect @ Max Dose (12 µM)” value (M1 (muscarinic Ach))?
A: −2.18%

Q: What about the “% Agonist Effect @ Max Dose (12 µM)” value (M2 (muscarinic Ach) [1]) of the same compound?
A: −0.63%

Q: What about the “% Agonist Effect @ Max Dose (12 µM)” value (M3 (muscarinic Ach) [2]) of the same compound?
A: 0.49%

Q: What about the “% Agonist Effect @ Max Dose (12 µM)” value (V1A (vasopressin)) of the same compound?
A: 0.59%

Q: And the “% Agonist Effect @ Max Dose (12 µM)” value (a1a (adrenoceptor))?
A: 4.58%

Q: What about the “% Agonist Effect @ Max Dose (12 µM)” value (a2a (adrenoceptor)) of the same compound?
A: −3.87%

Q: What about the “% Agonist Effect @ Max Dose (12 µM)” value (b1 (adrenoceptor)) of the same compound?
A: 4.53%

Q: What about the “% Agonist Effect @ Max Dose (12 µM)” value (b2 (adrenoceptor)) of the same compound?
A: −0.6%

Q: What about the “% Agonist Effect @ Max Dose (12 µM)” value (op-d (opioid)) of the same compound?
A: −0.98%

Q: What about the “% Agonist Effect @ Max Dose (12 µM)” value (op-k (opioid)) of the same compound?
A: 21.57%

Q: And the “% Agonist Effect @ Max Dose (12 µM)” value (op-m (opioid))?
A: 0.71%

Q: And the “% Inhibitory Effect @ Max Dose (10 µM)” value (M2 (muscarinic Ach) [3])?
A: 95.69%

Q: And the “% Inhibitory Effect @ Max Dose (10 µM)” value (M3 (muscarinic Ach) [4])?
A: 99.12%

Q: And the “Tumor total volume at 10.0 mg/kg” value (MV-4-11 xenograft; 10.0 mg/kg i.v., through day 29)?
A: consistent reduction in total volume

Q: And the “Tumor growth (total volume) compared to the vehicle control” value (MV-4-11 xenograft; i.v., GFH009 maleate 2.5, 5.0, 10.0 mg/kg QW or BIW, enitociclib 10.0 mg/kg QW, 3 weeks)?
A: tumor growth inhibition
